These results are taken from patent US6562978B1, “Cyclic amine compounds as CCR5 antagonists” (Takeda Chemical Industries, Ltd., priority 1999, dated 2003).

Structures can show the parent of a compound that is named as a salt.

The target of one test is T1, human CCR5 (Homo sapiens, UniProt P51681).
T1 construct: expressed in transfected cells; whole cells in the well
T1 sequence (P51681 whole entry): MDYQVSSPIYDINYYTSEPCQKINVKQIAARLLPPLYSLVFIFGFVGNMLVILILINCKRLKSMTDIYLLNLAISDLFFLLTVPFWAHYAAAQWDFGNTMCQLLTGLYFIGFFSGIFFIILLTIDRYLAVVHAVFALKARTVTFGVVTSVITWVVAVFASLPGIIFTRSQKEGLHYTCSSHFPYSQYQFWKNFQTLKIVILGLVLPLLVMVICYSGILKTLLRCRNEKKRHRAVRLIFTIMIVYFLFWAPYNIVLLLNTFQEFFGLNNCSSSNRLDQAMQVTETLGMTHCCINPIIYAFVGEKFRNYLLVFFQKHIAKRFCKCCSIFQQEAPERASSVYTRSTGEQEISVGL
Put plainly: CCR5 binding assay: inhibition of [125I]-RANTES binding to CHO/CCR5 cells. To be noted: 1.0 μM test compound, 100 pM [125I]-RANTES, room temperature 40 minutes, read-out: Inhibition Rate (%) at 1.0 μM. The procedure:
(1) Cloning of Human CCR5 Chemokine Receptor
Cloning of CCR5 gene was carried out by PCR (polymerase chain reaction) from human spleen cDNA. With using 0.5 ng of spleen cDNA (Toyobo, QUICK-Clone cDNA) as template, PCR was performed in DNA Thermal Cycler 480 (Perkin-Elmer) (reaction conditions: 30 cycles of 95° C. for 1 minute, 60° C. for 1 minute, and 75° C. for 5 minutes) by adding primer set, 5′-[…]-3′ (25 pmol) and 5′-[…]-3′ (25 pmol), which were designed referring to nucleotide sequence of CCR5 gene reported by Samson et al. (Biochemistry, 35(11), 3362-3367 (1996)) and by using TaKaRa EX Taq (Takara Shuzo). The resultant PCR product was subjected to agarose gel electrophoresis to collect about 1.0 kb DNA fragment, which was subjected to Original TA Cloning Kit (Funakoshi) to carry out cloning of CCR5 gene.
(2) Preparation of Plasmid for Expression of Human […]
The plasmid obtained in the above (1) was digested with restriction enzymes XbaI (Takara Shuzo) and BamHI (Takara Shuzo) and subjected to agarose gel electrophoresis to collect about 1.0 kb DNA fragment. The DNA fragment was mixed with plasmid pcDNA3.1 (Funakoshi) for expression in animal cells, said plasmid being digested with XbaI and BamHI, and they were ligated with DNA Ligation Kit Ver.2 (Takara Shuzo). The resulting plasmid was subjected to transformation of competent cell of E. coli JM109 (Takara Shuzo) to obtain plasmid pCKR5.
(3) Introduction of Plasmid for Expression of Human CCR5 into CHO-K1 Cell and Expression of said Plasmid in CHO-KY Cell
CHO-K1 cells were grown in 750 ml of tissue culture flask (Becton Dickinson) using Ham's F12 medium (Nihon Pharmaceutical) containing 10% fetal calf serum (Life Tech Oriental) and took off with 0.5 g/L trypsin-0.2 g/L EDTA (Life Tech Oriental). The cells were washed with PBS (Life Tech Oriental), centrifuged (1000 rpm, 5 minutes), and suspended in PBS. With using Gene Pulser (Bio-Rad Laboratories), DNA was introduced into the cells under the conditions shown below. That is, to the cuvette of 0.4 cm gap were added 8×10^6 cells and 10 μg of plasmid pCKR5 for expression of human CCR5, and electroporation was carried out under 0.25 kV of voltage and […] of capacitance. The cells were transferred into Ham's F12 medium (Nihon Pharmaceutical) containing 10% fetal calf serum, and cultivated for 24 hours. The cells were again took off and centrifuged, and suspended in Ham's F12 medium (Nihon Pharmaceutical) containing 10% fetal calf serum and 500 μg/ml of geneticin (Life Tech Oriental). The suspension was diluted to give 10^4 cells/ml of the suspension, which was inoculated on 96 well plate (Becton Dickinson) to give geneticin resistant cells. The resulting geneticin resistant cells were cultivated in 96 well plate (Becton Dickinson), and cells expressing CCR5 were selected from the geneticin resistant cells. That is, in assay buffer (Ham's F12 medium containing 0.5% BSA and 20 mM HEPES (Wako Pure Chemical, pH7.2) to which was added 200 pM of [^125I]-RANTES (Amersham) as ligand, binding reaction was carried out at room temperature for 40 minutes, and the buffer was washed with cooled PBS. To the buffer was added 50 μl/well of 1M NaOH, and the mixture was stirred. Radioactivity was determined with γ-counter to select CHO/CCR5 cells which specifically bind to the ligand.
(4) Evaluation of Test Compounds Based on CCR5 Antagonistic Activity
The CHO/CCR5 were inoculated on 96 well microplate (5×10^4 cells/well) and cultivated for 24 hours. The medium was removed by means of suction, and to each well was added assay buffer containing Test Compound (191) and then 100 pM of [^125I]-RANTES (Amersham) as ligand. Binding assay was carried out at room temperature for 40 minutes, and assay buffer was removed by means of suction. Each well was washed twice with cooled PBS, and 200 μl of Microscint-20 (Packard Instrument, Inc.) was added to each well.
Consider `CC(=O)N1CCC(C(=O)N(CCCN2CCC(Cc3ccc(NS(C)(=O)=O)cc3)CC2)c2ccc(Cl)c(Cl)c2)CC1` [Example 304, 1-Acetyl-N-(3,4-dichlorophenyl)-N-[3-(4-{4-[(methylsulfonyl)amino]benzyl}-1-piperidinyl)propyl]-4-piperidinecarboxamide], for which the inhibition at 1 µM turned out to be 99%.
Same read-out and setting: to `CC(=O)Nc1ccc(C(=O)N2CCC(C(=O)N(CCCN3CCC(Cc4ccc(F)cc4)CC3)c3ccc(Cl)c(Cl)c3)CC2)cc1` [Example 158, 1-[4-(Acetylamino)benzoyl]-N-(3,4-dichlorophenyl)-N-{3-[4-(4-fluorobenzyl)-1-piperidinyl]propyl}-4-piperidinecarboxamide Trifluoroacetate] belongs 97%; to `CS(=O)(=O)N1CCC(C(=O)N(CCCN2CCC(Cc3ccc(N4CCOCC4)cc3)CC2)c2ccc(Cl)c(Cl)c2)CC1` [Example 292, N-(3,4-Dichlorophenyl)-1-(methylsulfonyl)-N-{3-[4-(4-morpholinobenzyl)-1-piperidinyl]propyl}-4-piperidinecarboxamide], 97%; to `NC(=O)C(=O)N1CCC(C(=O)N(CCCN2CCC(Cc3ccc(F)cc3)CC2)c2ccc(Cl)c(Cl)c2)CC1` [Example 150, N-(3,4-Dichlorophenyl)-N-{3-[4-(4-fluorobenzyl)-1-piperidinyl]propyl}-1-oxamoyl-4-piperidinecarboxamide Trifluoroacetate], 98%.
Take `Cc1ccc(N(CCCN2CCC(Cc3ccc(C(N)=O)cc3)CC2)C(=O)C2CCN(S(C)(=O)=O)CC2)cc1Cl` [Example 470, N-(3-{4-[4-(Aminocarbonyl)benzyl]-1-piperidinyl}propyl)-N-(3-chloro-4-methylphenyl)-1-(methylsulfonyl)-4-piperidinecarboxamide]: the inhibition at 1 µM came out at 99%.
As to `CC(=O)N1CCC(C(=O)N(CCCN2CCC(Cc3ccc(F)cc3)CC2)c2cccc(Cl)c2)CC1` [Example 18, 1-Acetyl-N-(3-chlorophenyl)-N-{3-[4-(4-fluorobenzyl)-1-piperidinyl]propyl}-4-piperidinecarboxamide], the inhibition at 1 µM came to 87%.
Regarding `CN(C)C(=O)N1CCC(C(=O)N(CCCN2CCC(Cc3ccccc3)CC2)c2ccc(Cl)c(Cl)c2)CC1` [Example 27, N-[3-(4-Benzyl-1-piperidinyl)propyl]-N-(3,4-dichlorophenyl)-1-(N,N-dimethylcarbamoyl)-4-piperidinecarboxamide], the inhibition at 1 µM turned out to be 99%.
With `CS(=O)(=O)Nc1ccc(CC2CCN(CCCN(C(=O)C3CCN(S(C)(=O)=O)CC3)c3ccc(Cl)c(Cl)c3)CC2)cc1` [Example 313-2, N-(3,4-Dichlorophenyl)-1-(methylsulfonyl)-N-[3-(4-{4-[(methylsulfonyl)amino]benzyl}-1-piperidinyl)propyl]-4-piperidinecarboxamide], the inhibition at 1 µM is 97%.

For a further test, the system named is HIV-1 Ba-L. Kind of test: Inhibitory effect on HIV-1 infection to MAGI-CCR5 cell (blue cell count, β-galactosidase). The format is cell-based. The following applies: Human immunodeficiency virus 1, BAL, 48 h; final concentration of Test Compound 0.032 μM; MAGI-CCR5 cells; 300PFU HIV-1 Ba-L; 37° C. for 2 days.
Procedure: By using said transformant MAGI-CCR5, degree of HIV-1 infection was calculated from β-galactosidase activity (blue color due to decomposition of 5-bromo-4-chloro-3-indolyl-β-D-galactopyranoside). Specifically, MAGI-CCR5 cells were suspended in DMEM medium containing 10% serum to prepare 5×10^4 cells/ml suspension. To each well of 96 well plate was inoculated 200 μM of the suspension, and the cells were cultivated at 37° C. overnight. The medium was removed by means of suction, and to the residue was added 100 μM of the above medium containing 0.064 μM of Test Compound and 100 μM of the above medium containing 300PFU of HIV-1 Ba-L cells. The final concentration of Test Compound was 0.032 μM. The cells were cultivated at 37° C. for 2 days. The medium was removed by means of suction. To the residue was added 200 μM of cell fixative (PBS containing 1% formaldehyde and 0.2% glutaraldehyde), and the mixture was allowed to stand at room temperature for 5 minutes and washed twice with PBS. To the mixture was added 100 μl of staining solution (PBS containing 4 μM potassium ferrocyanide, 4 μM potassium ferricyanade, 2 μM MgCl2 and 0.4 mg/ml×-gal), and the mixture was allowed to stand at 37° C. for 50 minutes and washed twice with PBS. The number of blue cells was counted by microscope and defined as the number of cells infected with HIV-1.
The molecule `CC(=O)N1CCC(C(=O)N(CCCN2CCC(Sc3nc4ccccc4s3)CC2)c2cccc(Cl)c2)CC1` [Example 469, 1-Acetyl-N-(3-chlorophenyl)-N-[3-[4-(2-benzthiazolylthio)-1-piperidinyl]propyl]-4-piperidinecarboxamide Hydrochloride] showed an inhibition at 0.032 µM of 96%.
In the case of `CC(=O)N1CCC(C(=O)N(CCCN2CCC(Cc3ccc(F)cc3)CC2)c2ccc(Cl)c(Cl)c2)CC1` [Example 468, 1-Acetyl-N-(3,4-dichlorophenyl)-N-{3-[4-(4-fluorobenzyl)-1-piperidinyl]propyl}-4-piperidinecarboxamide Hydrochloride], the inhibition at 0.032 µM is 97%.

By inhibition is commonly meant how much of the control response was suppressed.
